This is an account of results in PubChem BioAssay (NCI).

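Grown in 96-well plates, cells were treated for 48 hours with each compound at five concentrations. Insufficient inhibition: endpoint recorded as highest concentration tested. The concentration for full growth arrest is given as TGI.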

Test systems include PC-3 prostate; K-562 leukemia; MOLT-4 leukemia; HT29 colon; OVCAR-3 ovarian; SK-MEL-28 melanoma; NCI-H522 lung; SK-OV-3 ovarian; T-47D breast; A498 renal; HL-60(TB) leukemia; SR leukemia; SNB-19 CNS; DU-145 prostate; UACC-257 melanoma; NCI/ADR-RES ovarian; CCRF-CEM leukemia; SW-620 colon; OVCAR-4 ovarian.
Common to all, as to test: NCI anticancer screen, dose series, 48 h

Turning to `O=[N+]([O-])c1ccc2sc(/C=N/c3ccccn3)cc2c1`, the TGI in the experiment with PC-3 prostate is over 100 µM; in the experiment with K-562 leukemia it was 96.6 µM; in the experiment on MOLT-4 leukemia, 53.5 µM; in the experiment with HT29 colon, over 100 µM; with OVCAR-3 ovarian it was over 100 µM; in the experiment on SK-MEL-28 melanoma it was over 100 µM. Besides, the TGI in the experiment on NCI-H522 lung was over 100 µM; in the experiment on SK-OV-3 ovarian, over 100 µM; in the experiment with T-47D breast it was 74 µM; with A498 renal, over 100 µM; in the experiment on HL-60(TB) leukemia, over 100 µM; with SR leukemia, 89.4 µM. Besides, the TGI in the experiment with SNB-19 CNS, in the experiment on DU-145 prostate, in the experiment on UACC-257 melanoma, in the experiment with NCI/ADR-RES ovarian, with CCRF-CEM leukemia and in the experiment on SW-620 colon was over 100 µM each time.
In the case of `COc1ccc(CCNC(=O)c2ccccc2C2c3ccc(OCc4ccccc4)cc3Oc3cc(OCc4ccccc4)ccc32)cc1OC`, the TGI in the experiment with PC-3 prostate, in the experiment with K-562 leukemia, with MOLT-4 leukemia, in the experiment with HT29 colon, in the experiment on OVCAR-3 ovarian and in the experiment on SK-MEL-28 melanoma was over 100 µM in each case. The TGI in the experiment on NCI-H522 lung, in the experiment on SK-OV-3 ovarian, in the experiment with T-47D breast, in the experiment with A498 renal, in the experiment with HL-60(TB) leukemia and with SR leukemia was over 100 µM each time. For the same compound, the TGI in the experiment on SNB-19 CNS, in the experiment with DU-145 prostate, in the experiment on UACC-257 melanoma, with NCI/ADR-RES ovarian, in the experiment with OVCAR-4 ovarian and in the experiment on SW-620 colon was over 100 µM each time.
For the compound `CC(C)OC(=O)[C@H]1ON2O[C@H](O[C@@H]3CCCC[C@H]3c3ccccc3)C([Si](C)(C)c3ccccc3)[C@H]3OC(=O)[C@@H]1C32` (some centres undefined), the TGI with PC-3 prostate, in the experiment on K-562 leukemia, in the experiment on MOLT-4 leukemia, in the experiment with HT29 colon, in the experiment with OVCAR-3 ovarian and in the experiment on SK-MEL-28 melanoma was over 100 µM in each case. Besides, the TGI with NCI-H522 lung is over 100 µM; in the experiment on SK-OV-3 ovarian, over 100 µM; with T-47D breast it was over 100 µM; in the experiment with A498 renal it was over 100 µM; with HL-60(TB) leukemia it was over 100 µM; in the experiment on SR leukemia, 54.2 µM. In addition, the TGI in the experiment with SNB-19 CNS, with DU-145 prostate, with UACC-257 melanoma, with NCI/ADR-RES ovarian, with CCRF-CEM leukemia and in the experiment on SW-620 colon was over 100 µM throughout.
On to `Cc1cn(Cc2cccc(C3=NCCCN3)c2)c(=O)n(Cc2cccc(C3=NCCCN3)c2)c1=O`, for which the TGI with PC-3 prostate, in the experiment with K-562 leukemia, in the experiment on MOLT-4 leukemia, in the experiment on OVCAR-3 ovarian, in the experiment on SK-MEL-28 melanoma and in the experiment with NCI-H522 lung was over 100 µM throughout. Also, the TGI in the experiment with SK-OV-3 ovarian, in the experiment with T-47D breast, with A498 renal, in the experiment on HL-60(TB) leukemia, in the experiment with SR leukemia and in the experiment with SNB-19 CNS was over 100 µM throughout. The TGI in the experiment with DU-145 prostate, with UACC-257 melanoma, in the experiment on NCI/ADR-RES ovarian, in the experiment with CCRF-CEM leukemia, in the experiment with OVCAR-4 ovarian and in the experiment with SW-620 colon was over 100 µM each time.
Turning to `Nc1ncc(C=O)c(NCC2(CO)CCC2)n1`, the TGI in the experiment with PC-3 prostate, in the experiment on K-562 leukemia, in the experiment on MOLT-4 leukemia, with HT29 colon, in the experiment with OVCAR-3 ovarian and with NCI-H522 lung was over 100 µM in each case. Also, the TGI in the experiment on T-47D breast was 88.9 µM; in the experiment on A498 renal it was over 100 µM; in the experiment on HL-60(TB) leukemia, over 100 µM; with SR leukemia, over 100 µM; in the experiment on DU-145 prostate, over 100 µM; in the experiment on UACC-257 melanoma it was over 100 µM. For the same compound, the TGI in the experiment with NCI/ADR-RES ovarian, in the experiment with CCRF-CEM leukemia, in the experiment on OVCAR-4 ovarian and in the experiment with SW-620 colon was over 100 µM throughout.
Take `CCOC(=O)/C(C(=S)NCc1ccccc1)=C(/N)N1CCCC1`: the TGI in the experiment on PC-3 prostate, with K-562 leukemia, in the experiment with MOLT-4 leukemia, in the experiment on HT29 colon, in the experiment on OVCAR-3 ovarian and in the experiment with SK-MEL-28 melanoma was over 100 µM each time. Further, the TGI with NCI-H522 lung, in the experiment on T-47D breast, in the experiment on A498 renal, in the experiment with HL-60(TB) leukemia, in the experiment with SR leukemia and in the experiment on SNB-19 CNS was over 100 µM each time. The TGI in the experiment with DU-145 prostate, in the experiment with UACC-257 melanoma, in the experiment on NCI/ADR-RES ovarian, in the experiment on CCRF-CEM leukemia, in the experiment on OVCAR-4 ovarian and in the experiment with SW-620 colon was over 100 µM throughout.
As to `CS(=O)(=O)OCCCSCCSCCCOS(C)(=O)=O`, the TGI with PC-3 prostate, in the experiment on K-562 leukemia, with MOLT-4 leukemia, in the experiment on HT29 colon, in the experiment with OVCAR-3 ovarian and with SK-MEL-28 melanoma was over 100 µM throughout. Further, the TGI in the experiment with NCI-H522 lung, in the experiment on SK-OV-3 ovarian, with T-47D breast, with HL-60(TB) leukemia, in the experiment with SR leukemia and in the experiment on SNB-19 CNS was over 100 µM throughout. The TGI in the experiment with DU-145 prostate, in the experiment with UACC-257 melanoma, in the experiment with NCI/ADR-RES ovarian, in the experiment with CCRF-CEM leukemia, in the experiment with OVCAR-4 ovarian and in the experiment on SW-620 colon was over 100 µM throughout.
